Reference: ChEMBL document CHEMBL1201862, “PubChem BioAssay data set” (2004)
Activity calls are given as the source filed them.

How the values were obtained:
Type in all cases: functional
[1] = molecular target: Serine/threonine-protein kinase D2 (Homo sapiens, UniProt Q9BZL6);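 further: measured against PRKD2 as one member of a kinome-wide kinase profiling panel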
[2] = molecular target: Death-associated protein kinase 3 (Homo sapiens, UniProt O43293);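 further: measured as one member of a kinome-wide profiling panel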
SRSF protein kinase 1 = SRSF protein kinase 1 (Homo sapiens, UniProt Q96SB4);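 further: measured as one member of a kinome-wide kinase profiling panel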
Sequence of SRSF protein kinase 1 (Q96SB4 whole entry): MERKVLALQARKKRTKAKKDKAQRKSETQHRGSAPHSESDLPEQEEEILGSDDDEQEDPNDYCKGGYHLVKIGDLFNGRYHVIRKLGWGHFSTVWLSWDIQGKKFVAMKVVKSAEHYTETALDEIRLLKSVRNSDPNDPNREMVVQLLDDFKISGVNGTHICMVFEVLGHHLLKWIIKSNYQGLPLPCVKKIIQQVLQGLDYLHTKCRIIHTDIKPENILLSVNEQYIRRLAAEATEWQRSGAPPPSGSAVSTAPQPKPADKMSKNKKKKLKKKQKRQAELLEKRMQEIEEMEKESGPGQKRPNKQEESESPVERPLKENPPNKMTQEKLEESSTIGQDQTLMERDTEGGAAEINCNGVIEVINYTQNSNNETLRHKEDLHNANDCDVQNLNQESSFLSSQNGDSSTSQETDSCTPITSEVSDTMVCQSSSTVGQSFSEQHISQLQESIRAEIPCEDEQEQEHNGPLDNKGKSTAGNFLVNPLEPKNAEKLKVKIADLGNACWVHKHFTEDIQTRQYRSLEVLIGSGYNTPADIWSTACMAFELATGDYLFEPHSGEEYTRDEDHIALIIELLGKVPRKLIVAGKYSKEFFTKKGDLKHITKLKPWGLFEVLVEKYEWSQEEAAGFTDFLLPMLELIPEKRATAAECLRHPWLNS

[3] = molecular target: Mitogen-activated protein kinase 8 (Homo sapiens, UniProt P45983);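 further: value comes from one member of a kinome-wide kinase profiling panel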
[4] = molecular target: Mast/stem cell growth factor receptor Kit (Homo sapiens, UniProt P10721);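 further: KIT entry within a kinase panel assay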
[5] = molecular target: Serine/threonine-protein kinase PAK 1 (Homo sapiens, UniProt Q13153)
[6] = molecular target: Fibroblast growth factor receptor 1 (Homo sapiens, UniProt P11362)
Sequence of Fibroblast growth factor receptor 1 (P11362 whole entry, canonical isoform): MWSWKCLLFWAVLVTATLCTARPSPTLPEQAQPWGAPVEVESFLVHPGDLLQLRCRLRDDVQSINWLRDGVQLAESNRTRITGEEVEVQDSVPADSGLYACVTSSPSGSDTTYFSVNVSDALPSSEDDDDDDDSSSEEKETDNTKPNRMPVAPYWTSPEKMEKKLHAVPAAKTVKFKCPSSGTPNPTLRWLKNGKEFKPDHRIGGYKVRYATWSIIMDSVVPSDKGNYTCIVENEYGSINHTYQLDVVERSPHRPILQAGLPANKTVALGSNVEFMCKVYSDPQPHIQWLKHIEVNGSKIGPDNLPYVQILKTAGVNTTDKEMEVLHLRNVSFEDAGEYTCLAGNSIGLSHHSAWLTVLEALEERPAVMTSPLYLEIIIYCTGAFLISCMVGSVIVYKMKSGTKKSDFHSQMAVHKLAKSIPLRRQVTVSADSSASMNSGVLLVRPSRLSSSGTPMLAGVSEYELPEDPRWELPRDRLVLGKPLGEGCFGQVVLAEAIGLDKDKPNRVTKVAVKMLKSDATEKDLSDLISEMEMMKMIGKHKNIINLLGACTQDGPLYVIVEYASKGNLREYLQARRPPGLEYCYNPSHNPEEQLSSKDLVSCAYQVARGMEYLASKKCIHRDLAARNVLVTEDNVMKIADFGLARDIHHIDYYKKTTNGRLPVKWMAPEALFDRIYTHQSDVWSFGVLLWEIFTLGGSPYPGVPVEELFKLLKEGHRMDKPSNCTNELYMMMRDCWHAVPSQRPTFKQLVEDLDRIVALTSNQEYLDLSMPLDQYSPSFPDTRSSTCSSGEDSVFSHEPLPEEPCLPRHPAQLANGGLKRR

[7] = molecular target: Casein kinase I isoform gamma-1 (Homo sapiens, UniProt Q9HCP0);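 further: measured as the CSNK1G1 member of a kinome profiling panel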
[8] = molecular target: Homeodomain-interacting protein kinase 2 (Homo sapiens, UniProt Q9H2X6);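 further: measured within a kinome-wide kinase profiling panel, HIPK2 being one panel member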
[9] = molecular target: Mitogen-activated protein kinase 13 (Homo sapiens, UniProt O15264)
[10] = molecular target: Proto-oncogene tyrosine-protein kinase Src (Homo sapiens, UniProt P12931);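 further: SRC entry within a kinome-wide kinase profiling panel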
[11] = molecular target: Serine/threonine-protein kinase Chk1 (Homo sapiens, UniProt O14757);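 further: measured as one member of a kinome-wide kinase profiling panel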
[12] = molecular target: Vascular endothelial growth factor receptor 2 (Homo sapiens, UniProt P35968)
[13] = molecular target: Interleukin-1 receptor-associated kinase 1 (Homo sapiens, UniProt P51617);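 further: IRAK1 tested as one member of a kinome panel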
[14] = molecular target: Mitogen-activated protein kinase kinase kinase kinase 5 (Homo sapiens, UniProt Q9Y4K4);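 further: measured as one member of a kinome-spanning kinase panel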
Sequence of Mitogen-activated protein kinase kinase kinase kinase 5 (Q9Y4K4 whole entry): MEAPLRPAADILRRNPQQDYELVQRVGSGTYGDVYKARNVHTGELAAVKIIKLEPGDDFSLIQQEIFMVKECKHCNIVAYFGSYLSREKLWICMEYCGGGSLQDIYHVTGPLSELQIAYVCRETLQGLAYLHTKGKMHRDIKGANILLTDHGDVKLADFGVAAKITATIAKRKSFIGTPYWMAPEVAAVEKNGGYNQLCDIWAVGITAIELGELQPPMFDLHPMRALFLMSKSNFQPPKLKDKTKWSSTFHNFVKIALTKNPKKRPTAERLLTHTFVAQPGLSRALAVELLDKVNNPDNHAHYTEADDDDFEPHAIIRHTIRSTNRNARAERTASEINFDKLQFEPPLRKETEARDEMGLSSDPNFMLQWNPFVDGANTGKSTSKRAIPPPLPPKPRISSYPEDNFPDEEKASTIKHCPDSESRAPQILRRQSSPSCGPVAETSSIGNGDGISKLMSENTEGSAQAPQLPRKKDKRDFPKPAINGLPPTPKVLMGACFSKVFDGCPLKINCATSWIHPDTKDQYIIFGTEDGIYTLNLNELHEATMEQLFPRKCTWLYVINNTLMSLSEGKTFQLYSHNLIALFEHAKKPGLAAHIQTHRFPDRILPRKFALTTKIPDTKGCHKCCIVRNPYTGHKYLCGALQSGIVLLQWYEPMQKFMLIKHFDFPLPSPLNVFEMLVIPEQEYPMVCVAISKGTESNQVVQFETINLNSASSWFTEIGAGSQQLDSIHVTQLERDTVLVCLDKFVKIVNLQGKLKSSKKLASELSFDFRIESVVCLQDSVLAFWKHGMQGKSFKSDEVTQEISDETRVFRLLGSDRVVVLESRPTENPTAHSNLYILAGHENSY

[15] = molecular target: Rho-associated protein kinase 1 (Homo sapiens, UniProt Q13464);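 further: measured within a broad kinome-wide panel profiling many kinases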
Sequence of Rho-associated protein kinase 1 (Q13464 whole entry): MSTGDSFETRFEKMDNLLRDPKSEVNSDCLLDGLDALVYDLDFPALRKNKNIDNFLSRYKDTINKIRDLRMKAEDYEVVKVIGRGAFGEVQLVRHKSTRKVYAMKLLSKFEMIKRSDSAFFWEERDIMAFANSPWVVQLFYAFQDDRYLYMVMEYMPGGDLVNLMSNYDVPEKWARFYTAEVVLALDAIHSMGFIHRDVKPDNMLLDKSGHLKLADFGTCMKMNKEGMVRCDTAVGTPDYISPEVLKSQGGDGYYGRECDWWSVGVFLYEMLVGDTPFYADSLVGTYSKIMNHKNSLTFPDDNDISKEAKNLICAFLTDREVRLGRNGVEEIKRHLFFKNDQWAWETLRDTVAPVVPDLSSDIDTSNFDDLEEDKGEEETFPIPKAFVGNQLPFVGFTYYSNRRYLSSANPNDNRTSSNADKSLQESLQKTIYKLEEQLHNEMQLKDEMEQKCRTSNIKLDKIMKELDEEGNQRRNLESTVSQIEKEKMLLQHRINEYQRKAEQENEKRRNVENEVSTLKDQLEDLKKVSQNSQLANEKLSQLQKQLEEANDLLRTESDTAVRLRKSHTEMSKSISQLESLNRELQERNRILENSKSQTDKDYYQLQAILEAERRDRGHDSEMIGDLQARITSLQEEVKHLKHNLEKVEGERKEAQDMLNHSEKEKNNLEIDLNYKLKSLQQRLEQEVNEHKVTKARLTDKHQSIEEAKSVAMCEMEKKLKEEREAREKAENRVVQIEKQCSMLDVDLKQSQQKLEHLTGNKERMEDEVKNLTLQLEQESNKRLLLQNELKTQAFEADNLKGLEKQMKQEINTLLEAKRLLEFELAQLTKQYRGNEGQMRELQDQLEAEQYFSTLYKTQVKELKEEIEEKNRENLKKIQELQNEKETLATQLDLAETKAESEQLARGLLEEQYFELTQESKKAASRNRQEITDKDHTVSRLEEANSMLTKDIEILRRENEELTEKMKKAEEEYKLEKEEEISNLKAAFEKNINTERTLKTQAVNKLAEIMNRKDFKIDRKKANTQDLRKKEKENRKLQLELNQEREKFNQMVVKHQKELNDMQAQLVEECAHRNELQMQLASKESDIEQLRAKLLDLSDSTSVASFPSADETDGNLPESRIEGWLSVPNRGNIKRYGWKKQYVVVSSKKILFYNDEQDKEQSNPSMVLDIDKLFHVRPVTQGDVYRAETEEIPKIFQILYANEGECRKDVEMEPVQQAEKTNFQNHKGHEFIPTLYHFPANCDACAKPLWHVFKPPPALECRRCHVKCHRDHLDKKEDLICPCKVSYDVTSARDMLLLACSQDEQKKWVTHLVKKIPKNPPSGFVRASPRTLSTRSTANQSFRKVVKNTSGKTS

[16] = molecular target: Receptor tyrosine-protein kinase erbB-4 (Homo sapiens, UniProt Q15303);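 further: ERBB4 member of a kinome-wide kinase profiling panel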
Sequence of Receptor tyrosine-protein kinase erbB-4 (Q15303 whole entry): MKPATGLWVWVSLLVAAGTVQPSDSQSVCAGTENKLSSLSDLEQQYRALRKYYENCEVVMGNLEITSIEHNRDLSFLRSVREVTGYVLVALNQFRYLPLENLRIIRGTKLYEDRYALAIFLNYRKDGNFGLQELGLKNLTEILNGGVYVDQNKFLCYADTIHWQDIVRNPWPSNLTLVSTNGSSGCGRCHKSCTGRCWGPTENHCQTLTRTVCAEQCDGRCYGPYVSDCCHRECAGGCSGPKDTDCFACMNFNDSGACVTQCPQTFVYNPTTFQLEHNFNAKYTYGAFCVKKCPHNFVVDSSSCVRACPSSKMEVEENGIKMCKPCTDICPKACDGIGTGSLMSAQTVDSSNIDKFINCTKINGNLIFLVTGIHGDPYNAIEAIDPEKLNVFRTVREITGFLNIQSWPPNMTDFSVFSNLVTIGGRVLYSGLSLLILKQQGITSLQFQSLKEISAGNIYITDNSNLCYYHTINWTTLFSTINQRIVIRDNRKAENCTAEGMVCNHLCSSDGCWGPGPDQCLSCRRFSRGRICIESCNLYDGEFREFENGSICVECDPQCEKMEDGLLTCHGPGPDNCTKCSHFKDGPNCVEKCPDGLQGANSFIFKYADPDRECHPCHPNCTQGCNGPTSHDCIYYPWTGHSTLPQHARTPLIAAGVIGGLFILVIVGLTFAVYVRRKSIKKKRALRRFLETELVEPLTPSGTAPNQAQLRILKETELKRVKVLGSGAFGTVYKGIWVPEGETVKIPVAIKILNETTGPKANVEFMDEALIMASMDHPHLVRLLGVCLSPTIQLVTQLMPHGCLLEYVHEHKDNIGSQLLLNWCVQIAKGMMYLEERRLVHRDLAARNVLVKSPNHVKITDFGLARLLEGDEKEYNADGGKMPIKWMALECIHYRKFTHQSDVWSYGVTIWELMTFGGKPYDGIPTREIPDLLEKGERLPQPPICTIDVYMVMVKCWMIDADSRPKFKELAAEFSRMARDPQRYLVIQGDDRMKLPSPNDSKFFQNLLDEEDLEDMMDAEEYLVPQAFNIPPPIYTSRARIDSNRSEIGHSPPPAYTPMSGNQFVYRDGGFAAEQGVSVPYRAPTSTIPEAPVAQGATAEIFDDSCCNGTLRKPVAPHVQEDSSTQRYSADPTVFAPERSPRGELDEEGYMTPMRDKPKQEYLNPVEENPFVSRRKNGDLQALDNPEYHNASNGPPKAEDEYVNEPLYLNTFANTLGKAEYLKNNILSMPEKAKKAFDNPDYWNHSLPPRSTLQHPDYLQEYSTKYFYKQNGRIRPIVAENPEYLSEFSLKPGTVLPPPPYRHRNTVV

[17] = molecular target: cAMP-dependent protein kinase catalytic subunit alpha (Homo sapiens, UniProt P17612)
[18] = molecular target: Macrophage colony-stimulating factor 1 receptor (Homo sapiens, UniProt P07333);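 further: value comes from the Navigating the Kinome screening panel, CSF1R member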

Measured: Ki

NC1CCCCC1Nc1nccc(-c2c[nH]c3ncccc23)n1 (centres undefined)
active: [1] 501 nM | [2] 39.8 nM | SRSF protein kinase 1 1260 nM | [5] 3160 nM | [7] 316 nM | [8] 25.1 nM | [9] 398 nM | [11] 1260 nM | [12] 7940 nM | [13] 39.8 nM | [14] 251 nM | [15] 5.01 nM | [17] 25.1 nM
inactive: [3] > 3160 nM | [4] > 1260 nM | [6] > 5010 nM | [10] > 2000 nM | [16] > 3980 nM | [18] > 2510 nM
